Here are results for 41 molecules from ChEMBL document CHEMBL1201862, “PubChem BioAssay data set” (2004).

Test systems include HOP-18; DLD-1; RXF 631; DMS-114; XF498; T47D; NCI/ADR-RES; PC-3; MDA-N.
Assay in all cases: inhibition of tumour cell growth, NCI panel, 48 h

Molecules are shown by their SMILES.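 Dose response: 5 concentrations. Exposure: 48 h. Format: 96-well plates. Endpoint: linear interpolation; highest concentration if not reached. GI50 is the concentration that inhibits growth by half.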 The source made the active and inactive calls. Rule as the data show it: active = GI50 up to about 1.1 µM and inactive = higher.

On to `Cc1c(OC(C)C(=O)O)ccc2c(-c3ccccc3)cc(=O)oc12` (stereo not given), for which the GI50 in the experiment with HOP-18, with DLD-1, in the experiment with RXF 631, in the experiment on DMS-114 and in the experiment on XF498 was > 100 µM (inactive) in each case.
For `Nc1nc(O)c2[nH]cnc2[n+]1[O-]`, the GI50 with T47D, in the experiment with NCI/ADR-RES, in the experiment with PC-3 and in the experiment with MDA-N was > 100 µM (inactive) throughout.
Take `COc1cccc(C2c3cc4c(cc3OC(N3CCOCC3)C2C)OCO4)c1` (stereo not given): the GI50 in the experiment on T47D was 27.5 µM (inactive); in the experiment with NCI/ADR-RES, 13.7 µM (inactive); in the experiment on PC-3, 5.53 µM (inactive); with MDA-N, 3.07 µM (inactive).
Regarding `COc1ccc(-c2cs/c(=N\c3ccccc3)n2CCCN(C)C)cc1`, the GI50 in the experiment on NCI/ADR-RES is 15.2 µM (inactive); in the experiment with PC-3 it was 12.6 µM (inactive); in the experiment with MDA-N it was 30.6 µM (inactive).
For the molecule `CCN(CC)CCO[Si](OCCN(CC)CC)(OCCN(CC)CC)OCCN(CC)CC`, the GI50 in the experiment with DLD-1, in the experiment on RXF 631, in the experiment with DMS-114 and in the experiment on XF498 was > 100 µM (inactive) throughout.
Take `Cc1cc(C)nc(NS(=O)(=O)c2ccc(NC(=O)c3cccc4c(Nc5ccc(S(=O)(=O)Nc6cc(C)on6)cc5)c5ccccc5nc34)cc2)n1`: the GI50 in the experiment on DLD-1 was 30.1 µM (inactive); in the experiment on DMS-114, 20.7 µM (inactive); in the experiment with XF498, 21.1 µM (inactive).
`O=C(Nc1ccc(Cl)c(Cl)c1)C(=O)C(C(=O)c1ccccc1F)C1OC(=O)c2ccccc21` (stereo not given): the GI50 is 26.4 µM (inactive) in the experiment on DLD-1, 18.7 µM (inactive) in the experiment with DMS-114 and 31.8 µM (inactive) with XF498.
The corresponding values for `CC1(Br)S(=O)(=O)OCCOS1(=O)=O` are > 100 µM (inactive), > 100 µM (inactive) and > 100 µM (inactive).
Regarding `NC(=O)OCC(COc1ccc(Cl)cc1)OC(=O)c1cc([N+](=O)[O-])cc([N+](=O)[O-])c1` (stereo not given), the GI50 in the experiment with HOP-18 was > 100 µM (inactive); in the experiment on DLD-1, 55.2 µM (inactive); in the experiment on RXF 631, > 100 µM (inactive); in the experiment with DMS-114 it was 35.1 µM (inactive); with XF498 it was 58.2 µM (inactive).
Take `ON(Cc1ccccc1)C(=S)c1ccccc1`: the GI50 was 15.9 µM (inactive) in the experiment on HOP-18; 5.9 µM (inactive) with T47D; 5.18 µM (inactive) in the experiment on DLD-1; 5.38 µM (inactive) with RXF 631; 2.22 µM (inactive) with DMS-114; > 41.7 µM (inactive) in the experiment on XF498. Besides, the figures for the GI50 in the experiment with PC-3 and with MDA-N were 3.03 µM (inactive) and 6.81 µM (inactive), respectively.
Turning to `O=c1cc(O)c1=O`, the GI50 with T47D, with PC-3 and in the experiment on MDA-N was > 100 µM (inactive) throughout.
`CSc1sc(C)cc1-c1nsc(=O)o1`: the GI50 in the experiment with NCI/ADR-RES, in the experiment on PC-3 and with MDA-N was > 100 µM (inactive) throughout.
As to `COc1ccc(NC(=O)C(=O)NNC(=O)c2sc(NNC(C)=O)nc2C)c([N+](=O)[O-])c1`, the GI50 with DMS-114 is > 100 µM (inactive); with XF498, 71.3 µM (inactive).
With `O=C1C(Cl)C2(CC(/C=C/c3cccs3)=NN2c2cccc(S(=O)(=O)O)c2)N1c1nc2ccccc2s1` (stereo not given), the GI50 in the experiment on T47D is 13.6 µM (inactive); with NCI/ADR-RES it was > 100 µM (inactive); with PC-3, > 100 µM (inactive); in the experiment with MDA-N, > 100 µM (inactive).
For `C#CCN(Cc1ccc2nc(-c3ccccc3)c(Cl)nc2c1)c1ccc(F)cc1`, the GI50 was 38 µM (inactive) in the experiment on T47D, > 100 µM (inactive) with NCI/ADR-RES, > 100 µM (inactive) in the experiment with PC-3 and > 100 µM (inactive) in the experiment on MDA-N.
Turning to `COc1nc(N=P(c2ccccc2)(c2ccccc2)c2ccccc2)cc(=O)n1C`, the GI50 with T47D, in the experiment on NCI/ADR-RES, with PC-3 and with MDA-N was > 100 µM (inactive) each time.
As for `NCC(Cl)C(O)c1c[nH]c(N)n1` (stereo not given), the GI50 was 0.275 µM (active) in the experiment with HOP-18; 1.84 µM (inactive) with DLD-1; 1.54 µM (inactive) with DMS-114; 2.45 µM (inactive) in the experiment with XF498; 0.596 µM (active) with NCI/ADR-RES.
On to `COc1cc(C(C)c2cc3c(cc2OCCOCCOc2cc4c(cc2C(C)c2cc(OC)c(OC)c(OC)c2)OCO4)OCO3)cc(OC)c1OC` (stereo not given), for which the GI50 in the experiment on HOP-18, in the experiment on DLD-1, with RXF 631, in the experiment with DMS-114 and in the experiment with XF498 was > 10 µM (inactive) each time.
On to `O=C(NC(Cc1ccc(Cl)cc1)C(=O)O)c1ccc(I)cc1` (stereo not given), for which the GI50 with HOP-18 was > 100 µM (inactive); with DLD-1, > 100 µM (inactive); in the experiment with XF498, > 64.4 µM (inactive); with NCI/ADR-RES, > 100 µM (inactive).
With `CCOC(=O)C1(C#N)C(c2ccccc2)CC(O)(c2ccc(OC)cc2)C(C(=O)c2ccc(OC)cc2)C1c1ccccc1` (stereo not given), the figures for the GI50 with HOP-18, in the experiment on DLD-1 and with DMS-114 were 15.6 µM (inactive), > 100 µM (inactive) and > 100 µM (inactive), respectively.
Regarding `Brc1cc(CCOC2CCCCO2)c(-c2sccc2CCOC2CCCCO2)s1` (stereo not given), the GI50 in the experiment on T47D is > 100 µM (inactive); in the experiment on NCI/ADR-RES it was 40.7 µM (inactive); with PC-3 it was 42.2 µM (inactive); in the experiment with MDA-N, 40.3 µM (inactive).
As to `CC1CC(c2ccccc2)=Nc2ccccc2S1` (stereo not given), the GI50 in the experiment on DLD-1, with RXF 631, with DMS-114 and in the experiment with XF498 was > 100 µM (inactive) throughout.
`CCc1ncc(C(C)(O)c2ccccc2)n1Cc1ccccc1` (stereo not given): the GI50 in the experiment on T47D was 73.6 µM (inactive); in the experiment on NCI/ADR-RES it was 37.7 µM (inactive); in the experiment on PC-3, 43.4 µM (inactive).
Take `Cn1c(=O)c(Cl)c(N=[N+]=[N-])c2ccccc21`: the GI50 with T47D is 64 µM (inactive); with NCI/ADR-RES, > 100 µM (inactive); in the experiment on PC-3, 78.7 µM (inactive); in the experiment with MDA-N, 84.1 µM (inactive).
For `O=C(Cc1ccccc1)N/N=C(/c1nc2ccc([N+](=O)[O-])cc2nc1O)C(O)c1ccccc1Cl` (stereo not given), the GI50 with HOP-18, in the experiment on DLD-1 and in the experiment with XF498 was > 100 µM (inactive) in each case.
Take `COc1cc2c(cc1OC)C1(COc3cc(O)c(O)c(O)c3C1=O)C2` (stereo not given): the GI50 is 5.11 µM (inactive) in the experiment with T47D, > 50 µM (inactive) in the experiment with NCI/ADR-RES, > 50 µM (inactive) with PC-3 and > 50 µM (inactive) with MDA-N.
Consider `CC1=CC(=O)CC2(C)CCC(C(C)CC(=O)CC(C)C)CC12` (stereo not given), for which the GI50 with NCI/ADR-RES was 29.6 µM (inactive); with PC-3, 19.5 µM (inactive).
On to `CCCCCCCc1cscc1-c1cscc1Br`, for which the GI50 was 24.2 µM (inactive) with T47D, 90.8 µM (inactive) in the experiment on NCI/ADR-RES, 33 µM (inactive) in the experiment on PC-3 and 35.8 µM (inactive) in the experiment on MDA-N.
Consider `C=CCNC(=O)N(CCC)CCCC(NC(C)=O)C(=O)NCc1ccccc1` (stereo not given), for which the GI50 is 16.3 µM (inactive) with HOP-18, > 100 µM (inactive) with RXF 631, > 100 µM (inactive) in the experiment with DMS-114 and > 100 µM (inactive) with XF498.
As to `CC(C)C1=C(O)C(=O)C2=C(C1=O)C(OC=O)C(O)C1C(C)(C)CCCC21C` (stereo not given), the GI50 in the experiment on T47D was 8.24 µM (inactive); in the experiment on PC-3, 11.2 µM (inactive); in the experiment on MDA-N, 7.31 µM (inactive).
Take `O=c1oc2ccc(-n3c(=O)c4ccccc4c4ccccc4c3=O)cc2c2ccccc12`: the GI50 in the experiment on T47D, in the experiment on NCI/ADR-RES, in the experiment on PC-3 and in the experiment with MDA-N was > 100 µM (inactive) in each case.
As for `CCOC(=O)Cc1cc(OC)c(OC)cc1/C(Cl)=C(\CO)c1ccc(OC)c(OC)c1`, the GI50 in the experiment with HOP-18 is > 100 µM (inactive); in the experiment on DLD-1, > 100 µM (inactive); in the experiment on RXF 631, > 100 µM (inactive); in the experiment on DMS-114 it was 66.5 µM (inactive); in the experiment on XF498, 16.9 µM (inactive).
Consider `C=C(C)C1Cc2c(cc(O)c3c(=O)c4ccccc4n(C)c23)O1` (stereo not given), for which the GI50 with HOP-18 was 16 µM (inactive); in the experiment on DLD-1 it was 27.1 µM (inactive); in the experiment with RXF 631, 37 µM (inactive); with DMS-114, > 100 µM (inactive); in the experiment with XF498, 23.8 µM (inactive).
Regarding `CN(C)CCCNC(=S)S`, the GI50 with NCI/ADR-RES, with PC-3 and in the experiment on MDA-N was > 100 µM (inactive) each time.
For `COC(=O)C12C3C4C1C1C2C3C41C(=O)O` (stereo not given), the GI50 in the experiment with HOP-18, with DLD-1, in the experiment on RXF 631, in the experiment with DMS-114 and with XF498 was > 100 µM (inactive) each time.
Take `COc1cc(C2c3cc4c(cc3[C@@H](Nc3cccc(CO)c3)C3COC(=O)[C@H]23)OCO4)cc(OC)c1O` (stereo not given in full): the GI50 in the experiment on HOP-18 was 1.1 µM (active); with DLD-1, 1.43 µM (inactive); in the experiment with DMS-114 it was 0.427 µM (active); in the experiment with XF498 it was 0.154 µM (active); with NCI/ADR-RES, 1.34 µM (inactive).
Consider `Nc1ncnc2c1ncn2C1C(O)C=C(CO)C1O` (stereo not given), for which the GI50 in the experiment with HOP-18 is > 625 µM (inactive); in the experiment with DLD-1, > 625 µM (inactive); in the experiment with DMS-114 it was > 625 µM (inactive); in the experiment with XF498, < 0.0625 µM (active); with NCI/ADR-RES it was > 625 µM (inactive).
Take `COC1=CC(=O)[C@@]2(C)C(C)[C@H](c3ccccc3)[C@H]2C1=O` (stereo not given in full): the GI50 with DLD-1, in the experiment with RXF 631 and with XF498 was > 100 µM (inactive) in each case.
As for `O=c1c2cc(I)ccc2nc(-c2cccs2)n1O`, the GI50 is 26.2 µM (inactive) with T47D, 41.1 µM (inactive) with NCI/ADR-RES, 52.1 µM (inactive) in the experiment with PC-3 and 51.2 µM (inactive) in the experiment with MDA-N.
`COc1cc(C)c(CC/C(C)=C/Cc2cc(O)ccc2O)c(C)c1C` [PANICEIN A HYDROQUINONE]: the GI50 in the experiment on HOP-18, in the experiment with DLD-1, with DMS-114 and in the experiment with XF498 was > 25 µM (inactive) in each case.
With `S=C=NCCc1ccccc1` [PHENETHYLISOTHIOCYANATE], the GI50 is 0.0596 µM (active) in the experiment with DLD-1, 0.382 µM (active) in the experiment with DMS-114 and 2.39 µM (inactive) in the experiment on XF498.
